According to PubChem BioAssay (NCI):
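Five concentrations, 48 hours, 96-well plates. The concentration for 50% growth inhibition is given as GI50. TGI marks complete inhibition of growth.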

Tests used:
Assay in all cases: NCI tumour cell line growth inhibition, 48 h
HCT-116 colon = test system: HCT-116 colon
786-0 renal = test system: 786-0 renal
TK-10 renal = test system: TK-10 renal
NCI-H226 lung = test system: NCI-H226 lung
SF-539 CNS = test system: SF-539 CNS
SNB-75 CNS = test system: SNB-75 CNS
SF-295 CNS = test system: SF-295 CNS
SK-MEL-28 melanoma = test system: SK-MEL-28 melanoma
MALME-3M melanoma = test system: MALME-3M melanoma
SN12C renal = test system: SN12C renal
UO-31 renal = test system: UO-31 renal
OVCAR-8 ovarian = test system: OVCAR-8 ovarian
HCT-15 colon = test system: HCT-15 colon
A498 renal = test system: A498 renal
CCRF-CEM leukemia = test system: CCRF-CEM leukemia
SK-OV-3 ovarian = test system: SK-OV-3 ovarian
NCI/ADR-RES ovarian = test system: NCI/ADR-RES ovarian
OVCAR-5 ovarian = test system: OVCAR-5 ovarian
SNB-19 CNS = test system: SNB-19 CNS
EKVX NSCLC = test system: EKVX NSCLC
HOP-92 NSCLC = test system: HOP-92 NSCLC
MDA-MB-468 breast = test system: MDA-MB-468 breast
UACC-62 melanoma = test system: UACC-62 melanoma
OVCAR-3 ovarian = test system: OVCAR-3 ovarian
SR leukemia = test system: SR leukemia
BT-549 breast = test system: BT-549 breast
NCI-H23 lung = test system: NCI-H23 lung
HL-60(TB) leukemia = test system: HL-60(TB) leukemia
MDA-MB-435 = test system: MDA-MB-435
CAKI-1 renal = test system: CAKI-1 renal
K-562 leukemia = test system: K-562 leukemia
SK-MEL-5 melanoma = test system: SK-MEL-5 melanoma
MDA-MB-231 breast = test system: MDA-MB-231 breast
M14 melanoma = test system: M14 melanoma
MOLT-4 leukemia = test system: MOLT-4 leukemia
ACHN renal = test system: ACHN renal
COLO 205 colon = test system: COLO 205 colon
DU-145 prostate = test system: DU-145 prostate
SK-MEL-2 melanoma = test system: SK-MEL-2 melanoma
HCC-2998 colon = test system: HCC-2998 colon
MCF7 breast = test system: MCF7 breast
SF-268 CNS = test system: SF-268 CNS
HS 578T breast = test system: HS 578T breast
LOX IMVI melanoma = test system: LOX IMVI melanoma
RPMI-8226 leukemia = test system: RPMI-8226 leukemia
IGROV1 ovarian = test system: IGROV1 ovarian

With `Cn1cc(-c2cc3nc(-c4c[nH]c5ccccc45)cc(N)n3n2)c2ccccc21` the GI50 (HCT-116 colon) was 1.8 µM, the TGI (HCT-116 colon) was 3.3 µM and the GI50 (786-0 renal) was 1.51 µM. It also gave a TGI (786-0 renal) of 2.94 µM, a GI50 (TK-10 renal) of 1.77 µM and a TGI (TK-10 renal) of 4.65 µM. It also gave a GI50 (NCI-H226 lung) of 2.2 µM, a TGI (NCI-H226 lung) of 4.98 µM and a GI50 (SF-539 CNS) of 1.75 µM. For the same molecule, the TGI (SF-539 CNS) was 3.13 µM, the GI50 (SNB-75 CNS) was 1.74 µM and the TGI (SNB-75 CNS) was 3.93 µM. It also gave a GI50 (SF-295 CNS) of 1.64 µM, a TGI (SF-295 CNS) of 3.19 µM and a GI50 (SK-MEL-28 melanoma) of 1.74 µM. For the same molecule, the TGI (SK-MEL-28 melanoma) was 3.18 µM, the GI50 (MALME-3M melanoma) was 1.87 µM and the TGI (MALME-3M melanoma) was 3.37 µM. It also gave a GI50 (SN12C renal) of 1.87 µM, a TGI (SN12C renal) of 3.49 µM and a GI50 (UO-31 renal) of 1.54 µM. For the same molecule, the TGI (UO-31 renal) was 2.93 µM, the GI50 (OVCAR-8 ovarian) was 1.9 µM and the TGI (OVCAR-8 ovarian) was 3.97 µM. For the same molecule, the GI50 (HCT-15 colon) was 1.6 µM, the TGI (HCT-15 colon) was 3.01 µM and the GI50 (A498 renal) was 19.7 µM. The TGI (A498 renal) was 44.6 µM, the GI50 (CCRF-CEM leukemia) was 1.95 µM and the TGI (CCRF-CEM leukemia) was 4.2 µM. For the same molecule, the GI50 (SK-OV-3 ovarian) was 10.5 µM, the TGI (SK-OV-3 ovarian) was 46.8 µM and the GI50 (NCI/ADR-RES ovarian) was 1.78 µM. The TGI (NCI/ADR-RES ovarian) was 3.41 µM, the GI50 (OVCAR-5 ovarian) was 1.82 µM and the TGI (OVCAR-5 ovarian) was 3.3 µM. It also gave a GI50 (SNB-19 CNS) of 3.43 µM, a TGI (SNB-19 CNS) of 17.3 µM and a GI50 (EKVX NSCLC) of 1.65 µM. For the same molecule, the TGI (EKVX NSCLC) was 3.16 µM, the GI50 (HOP-92 NSCLC) was 1.94 µM and the TGI (HOP-92 NSCLC) was 3.75 µM. For the same molecule, the GI50 (MDA-MB-468 breast) was 1.55 µM, the TGI (MDA-MB-468 breast) was 2.93 µM and the GI50 (UACC-62 melanoma) was 1.64 µM. For the same molecule, the TGI (UACC-62 melanoma) was 3.06 µM, the GI50 (OVCAR-3 ovarian) was 1.74 µM and the TGI (OVCAR-3 ovarian) was 3.4 µM. It also gave a GI50 (SR leukemia) of 1.95 µM, a TGI (SR leukemia) of 5.9 µM and a GI50 (BT-549 breast) of 12.4 µM. It also gave a TGI (BT-549 breast) of 54.4 µM, a GI50 (NCI-H23 lung) of 1.75 µM and a TGI (NCI-H23 lung) of 3.32 µM. The GI50 (HL-60(TB) leukemia) was 1.5 µM, the TGI (HL-60(TB) leukemia) was 3.22 µM and the GI50 (MDA-MB-435) was 1.78 µM. It also gave a TGI (MDA-MB-435) of 3.46 µM, a GI50 (CAKI-1 renal) of 1.68 µM and a TGI (CAKI-1 renal) of 3.31 µM. The GI50 (K-562 leukemia) was 1.74 µM, the TGI (K-562 leukemia) was 3.54 µM and the GI50 (SK-MEL-5 melanoma) was 1.95 µM. The TGI (SK-MEL-5 melanoma) was 4.1 µM, the GI50 (MDA-MB-231 breast) was 1.94 µM and the TGI (MDA-MB-231 breast) was 3.35 µM. It also gave a GI50 (M14 melanoma) of 1.75 µM, a TGI (M14 melanoma) of 3.34 µM and a GI50 (MOLT-4 leukemia) of 1.77 µM. For the same molecule, the TGI (MOLT-4 leukemia) was 3.92 µM, the GI50 (ACHN renal) was 1.76 µM and the TGI (ACHN renal) was 3.22 µM. The GI50 (COLO 205 colon) was 1.75 µM, the TGI (COLO 205 colon) was 3.29 µM and the GI50 (DU-145 prostate) was 2.04 µM. The TGI (DU-145 prostate) was 4.73 µM, the GI50 (SK-MEL-2 melanoma) was 1.87 µM and the TGI (SK-MEL-2 melanoma) was 3.73 µM. It also gave a GI50 (HCC-2998 colon) of 1.65 µM, a TGI (HCC-2998 colon) of 3.06 µM and a GI50 (MCF7 breast) of 1.68 µM. The TGI (MCF7 breast) was 3.39 µM, the GI50 (SF-268 CNS) was 2.4 µM and the TGI (SF-268 CNS) was 7.17 µM. For the same molecule, the GI50 (HS 578T breast) was 2.55 µM, the TGI (HS 578T breast) was 6.28 µM and the GI50 (LOX IMVI melanoma) was 1.86 µM. For the same molecule, the TGI (LOX IMVI melanoma) was 3.35 µM, the GI50 (RPMI-8226 leukemia) was 2.11 µM and the TGI (RPMI-8226 leukemia) was 5.07 µM. It also gave a GI50 (IGROV1 ovarian) of 1.77 µM and a TGI (IGROV1 ovarian) of 3.26 µM.
